Experimental data: patent US9833497B2, “Human originated EGF domain proteins and use of the same” (CHENGDU SOURCEBIO LIMITED-LIABILITY COMPANY, priority 2013, dated 2017)

Columns and labels:
Type in all cases: cell-based
Moraxella catarrhalis = test: MIC against Gram-negative bacteria: Moraxella catarrhalis; conditions: 10 h cultivation at 37° C., 5×10^5 CFU/mL; for MIC M. catarrhalis: two-fold serial dilution
Summary of the method: (§1)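 MIC, the lowest recombinant protein concentration giving no bacterial growth, found by two-fold serial dilution of human EGF-domain proteins in triplicate. Inoculum 5×10^5 CFU/mL in LB from cultures at McFarland 0.5; plates incubated at 37° C, 175 rpm shaking.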

E. coli BL21 = test: MIC against Gram-negative bacteria: E. coli BL21; conditions: 10 h cultivation at 37° C., 5×10^5 CFU/mL; for MIC E. coli BL21: two-fold serial dilution
Summary of the method: as §1

Proteus vulgaris = test: MIC against Gram-negative bacteria: Proteus vulgaris; conditions: 10 h cultivation at 37° C., 5×10^5 CFU/mL; for MIC P. vulgaris: two-fold serial dilution
Summary of the method: as §1

Serratia marcescens = test: MIC against Gram-negative bacteria: Serratia marcescens; conditions: 10 h cultivation at 37° C., 5×10^5 CFU/mL; for MIC S. marcescens: two-fold serial dilution
Summary of the method: as §1

Aeromonas hydrophila = test: MIC against Gram-negative bacteria: Aeromonas hydrophila; conditions: 10 h cultivation at 37° C., 5×10^5 CFU/mL; for MIC A. hydrophila: two-fold serial dilution
Summary of the method: as §1

Citrobacter diversus = test: MIC against Gram-negative bacteria: Citrobacter diversus; conditions: 10 h cultivation at 37° C., 5×10^5 CFU/mL; for MIC C. diversus: two-fold serial dilution
Summary of the method: as §1

E. coli DH5α = test: Antibacterial activity: MIC and growth curve against E. coli DH5α in 96-well plate; conditions: minimal inhibitory concentration against E. coli DH5α; 96-well plate, 5×10^5 CFU/mL, 37° C., judged after 8 h
Summary of the method: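 Log-phase DH5α (OD600 about 0.5, 37° C, 185 rpm in LB) was pelleted, resuspended in fresh LB and seeded at 5×10^5 CFU/mL with recombinant protein at 50, 25 and 12.5 μg/mL (two-fold series), in triplicate. Plates were shaken at 175 rpm, 37° C, and OD600 was read every 30 min. MIC was the lowest concentration with no growth.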

Enterobacter cloacae = test: MIC against Gram-negative bacteria: Enterobacter cloacae; conditions: 10 h cultivation at 37° C., 5×10^5 CFU/mL; for MIC E. cloacae: two-fold serial dilution
Summary of the method: as §1

Klebsiella pneumonia = test: MIC against Gram-negative bacteria: Klebsiella pneumonia; conditions: 10 h cultivation at 37° C., 5×10^5 CFU/mL; for MIC K. pneumonia: two-fold serial dilution
Summary of the method: as §1

Pseudomonas aeruginosa = test: MIC against Gram-negative bacteria: Pseudomonas aeruginosa; conditions: 10 h cultivation at 37° C., 5×10^5 CFU/mL; for MIC P. aeruginosa: two-fold serial dilution
Summary of the method: as §1

Proteus mirabilis = test: MIC against Gram-negative bacteria: Proteus mirabilis; conditions: 10 h cultivation at 37° C., 5×10^5 CFU/mL; for MIC P. mirabilis: two-fold serial dilution
Summary of the method: as §1

Substance | MIC (μg/mL) M. catarrhalis (Moraxella catarrhalis; M. catarrhalis) [µg/mL] | MIC (μg/mL) E. coli BL21 (E. coli BL21; E. coli BL21) [µg/mL] | MIC (μg/mL) P. vulgaris (Proteus vulgaris; P. vulgaris) [µg/mL] | MIC (μg/mL) S. marcescens (Serratia marcescens; S. marcescens) [µg/mL] | MIC (μg/mL) A. hydrophila (Aeromonas hydrophila; A. hydrophila) [µg/mL] | MIC (μg/mL) C. diversus (Citrobacter diversus; C. diversus) [µg/mL] | MIC (E. coli DH5α) [µg/mL] | MIC (μg/mL) E. cloacae (Enterobacter cloacae; E. cloacae) [µg/mL] | MIC (μg/mL) K. pneumonia (Klebsiella pneumonia; K. pneumonia) [µg/mL] | MIC (μg/mL) P. aeruginosa (Pseudomonas aeruginosa; P. aeruginosa) [µg/mL] | MIC (μg/mL) P. mirabilis (Proteus mirabilis; P. mirabilis) [µg/mL] | MIC M. catarrhalis (Moraxella catarrhalis) [µg/mL] | MIC E. coli BL21 (E. coli BL21) [µg/mL] | MIC P. vulgaris (Proteus vulgaris) [µg/mL] | MIC S. marcescens (Serratia marcescens) [µg/mL] | MIC A. hydrophila (Aeromonas hydrophila) [µg/mL] | MIC C. diversus (Citrobacter diversus) [µg/mL] | MIC E. cloacae (Enterobacter cloacae) [µg/mL] | MIC K. pneumonia (Klebsiella pneumonia) [µg/mL] | MIC P. aeruginosa (Pseudomonas aeruginosa) [µg/mL] | also measured
PRT227 (KGNNCRDSTLCPAYATCTNTVDSYYCACKQGFLSSNGQNHFKDPGVRCK; listed as Homo sapiens) | 25 | 12.5 | 25 | 50 | 12.5 | 50 | 12.5 | 12.5 | 12.5 | 12.5 | 12.5 | – | – | – | – | – | – | – | – | – | –
PRT1100 (DIDECASDPCVNGGLCQDLLNKFQCLCDVAFAGERCE; listed as Homo sapiens) | – | – | – | – | – | – | 12.5 | – | – | – | – | 12.5 | 25 | 25 | 12.5 | 100 | 12.5 | 12.5 | 25 | 100 | MIC P. mirabilis (Proteus mirabilis): 12.5 µg/mL
PRT1365 (SQLRCPNDCHSRGRCVEGKCVCEQGFKGYDCS; listed as Homo sapiens) | – | – | – | – | – | – | 12.5 | – | – | – | – | – | – | – | – | – | – | – | – | – | MIC against M. catarrhalis (Moraxella catarrhalis; Moraxella catarrhalis): 25 µg/mL; MIC against E. coli BL21 (E. coli BL21; E. coli BL21): 100 µg/mL; MIC against P. vulgaris (Proteus vulgaris; Proteus vulgaris): 25 µg/mL; MIC against S. marcescens (Serratia marcescens; Serratia marcescens): 12.5 µg/mL; MIC against A. hydrophila (Aeromonas hydrophila; Aeromonas hydrophila): 12.5 µg/mL; MIC against C. diversus (Citrobacter diversus; Citrobacter diversus): 50 µg/mL; MIC against E. cloacae (Enterobacter cloacae; Enterobacter cloacae): 25 µg/mL; MIC against K. pneumonia (Klebsiella pneumonia; Klebsiella pneumonia): 50 µg/mL; MIC against P. aeruginosa (Pseudomonas aeruginosa; Pseudomonas aeruginosa): 25 µg/mL; MIC against P. mirabilis (Proteus mirabilis; Proteus mirabilis): 12.5 µg/mL
PRT1132 (DEHICTTQSPCQNGGQCMYDGGGEYHCVCLPGFHGRDCE; listed as Homo sapiens) | – | – | – | – | – | – | 50 | – | – | – | – | 12.5 | 12.5 | 50 | 25 | 12.5 | 50 | 50 | 12.5 | 50 | MIC P. mirabilis (Proteus mirabilis): 25 µg/mL
PRT840 (GSARCGSGGPGSCPVPQECVPQDGAAGAGLCRCPQGWAGPHCR; listed as Homo sapiens) | 25 | 12.5 | 25 | 25 | 25 | 12.5 | 25 | 12.5 | 25 | 25 | 12.5 | – | – | – | – | – | – | – | – | – | –
PRT415 (DINECLSISAPCPIGHTCINTEGSYTCQKNVPNCGRGYHLNEEGTRCV; listed as Homo sapiens) | – | – | – | – | – | – | 25 | – | – | – | – | – | – | – | – | – | – | – | – | – | MIC (Moraxella catarrhalis; M. catarrhalis): 50 µg/mL; MIC (E. coli BL21; E. coli BL21): 12.5 µg/mL; MIC (Proteus vulgaris; P. vulgaris): 12.5 µg/mL; MIC (Serratia marcescens; S. marcescens): 25 µg/mL; MIC (Aeromonas hydrophila; A. hydrophila): 12.5 µg/mL; MIC (Citrobacter diversus; C. diversus): 25 µg/mL; MIC (Enterobacter cloacae; E. cloacae): 25 µg/mL; MIC (Klebsiella pneumonia; K. pneumonia): 50 µg/mL; MIC (Pseudomonas aeruginosa; P. aeruginosa): 25 µg/mL; MIC (Proteus mirabilis; P. mirabilis): 25 µg/mL
